From patent US4775671A, “Imidazodiazepines” (Hoffmann-La Roche Inc., priority 1984, dated 1988)

Tests used:
[1] = molecular target: central benzodiazepine receptors; experiment: Inhibition of binding of tritiated diazepam at specific benzodiazepine receptors in the cerebral cortex; conditions: 50 percent inhibition of specific binding of tritiated diazepam
Experimental: The affinity of compounds of general formula I to the central benzodiazepine receptors was determined according to the method described in Life Science 20, 2101-2110 (1977) and Science 198, 849-851 ([…]). According to this method, the inhibition of the binding of tritiated diazepam at the specific benzodiazepine receptors in the cerebral cortex by the respective test substances is ascertained. The IC50 ("50% inhibiting concentration") is that concentration of the respective test substance which brings about a 50 percent inhibition of the specific binding of the tritiated diazepam at the specific benzodiazepine receptors in the cerebral cortex.

[2] = system: spasmodic seizures caused by pentetrazole; experiment: Antipentetrazole test (anticonvulsant); assay type: in vivo; conditions: Rattus norvegicus, po, 0.5 h; female rats 60-80 g, p.o., 30 minutes before 120 mg/kg pentetrazole i.p.; protects 50% of animals
Experimental: The central properties of the compounds of formula I in accordance with the invention can be determined, for example, in the antipentetrazole test which is described hereinafter and which is generally recognized for recording anticonvulsant properties.
In this animal experiment the compound under investigation is administered orally to female rats weighing 60-80 g and 30 minutes later there are administered i.p. 120 mg/kg of pentetrazole, which causes emprosthotonus and tonic stretchings of the fore and/or hind limbs in unprotected experimental animals 1-4 minutes after the injection. Ten experimental animals are used per dosage of test substance. After counting the protected experimental animals the ED50 is determined according to the Probit method. The ED50 is that dosage which protects 50% of the experimental animals from the spasmodic seizures caused by pentetrazole.

[3] = Acute toxicity, single oral administration to mice; conditions: mouse, in vivo
Source text: The results which have been obtained with representative members of the class of compound defined by general formula I in the experiments described previously are compiled in the following Table. Moreover, the Table contains data concerning the acute toxicity of some of these compounds (LD50 in mg/kg in the case of single oral administration to mice).

Structure (SMILES) | IC50 [1] | ED50 [2] | LD50 [3]
CN1Cc2c(-c3nc(C4CC4)no3)ncn2-c2ccc(F)cc2C1=O | 5.6 nM | 0.23 mg/kg | –
O=C1c2c(Cl)cccc2-n2cnc(-c3noc(C(F)(F)F)n3)c2[C@@H]2CCCN12 | 9.6 nM | 1.2 mg/kg | –
Cc1noc(-c2ncn3c2[C@@H]2CCCN2C(=O)c2c(Br)cccc2-3)n1 [Example 5, (S)-8-bromo-11,12,13,13a-tetrahydro-1-(3-methyl-1,2,4-oxadiazol-5-yl)9H-imidazo[1,5-a]pyrrolo[2,1-c][1,4] benzodiazepin-9-one] | 2.1 nM | 0.068 mg/kg | 2500 to 5000 mg/kg
CON=Cc1ncn2c1[C@@H]1CCN1C(=O)c1c(Cl)cccc1-2 [Example 23, (S)-8-chloro-12,12a-dihydro-9-oxo-9H,11H-azeto[2,1-c]imidazo[1,5-a][1,4]benzodiazepine-1-carboxaldehyde O-methyl oxime] | 10 nM | 0.63 mg/kg | –
Cc1noc(-c2ncn3c2[C@@H]2CCN2C(=O)c2c-3cccc2C(F)(F)F)n1 [Example 9, (S)-12,12a-dihydro-1-(3-methyl-1,2,4-oxadiazol-5-yl)-8-(trifluoromethyl)-9H,11H-azeto[2,1-c]imidazo[1,5-a][1,4]benzodiazepin-9-one] | 3.7 nM | 0.021 mg/kg | –
Cc1noc(-c2ncn3c2[C@@H]2CCCN2C(=O)c2c-3ccc(F)c2Cl)n1 [Example 4, (S)-8-chloro-7-fluoro-11,12,13,13a-tetrahydro-1-(3-methyl-1,2,4-oxadiazol-5-yl)-9H-imidazo[1,5-a]pyrrolo[2,1-c][1,4]benzodiazepin-9-one] | 5.2 nM | 0.082 mg/kg | 1250 to 2500 mg/kg
Cc1noc(-c2ncn3c2CN(C)C(=O)c2c(Cl)cccc2-3)n1 | 3.9 nM | 0.43 mg/kg | 1250 to 2500 mg/kg
Cc1noc(-c2ncn3c2[C@@H]2CCCN2C(=O)c2c(Cl)cccc2-3)n1 | 2.3 nM | 0.08 mg/kg | 2000 to 4000 mg/kg
O=C1c2c(Cl)cccc2-n2cnc(-c3nc(C4CC4)no3)c2[C@@H]2CCCN12 | 2.2 nM | 0.2 mg/kg | 1250 to 2500 mg/kg
Cc1noc(-c2ncn3c2C2CCN2C(=O)c2c(Cl)cccc2-3)n1 (racemic) | 10 nM | 0.32 mg/kg | –
Cc1nnc(-c2ncn3c2[C@@H]2CCCN2C(=O)c2c(Cl)cccc2-3)o1 | 8.4 nM | 2.7 mg/kg | 312 to 625 mg/kg
COCc1noc(-c2ncn3c2[C@@H]2CCCN2C(=O)c2c(Cl)cccc2-3)n1 | 5.2 nM | 0.39 mg/kg | –
CN1Cc2c(-c3nc(C4CC4)no3)ncn2-c2cccc(Cl)c2C1=O | 4.5 nM | 0.034 mg/kg | –
